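Tested at 5 concentrations; 48 h exposure; 96-well plates; endpoints linearly interpolated, else capped at highest concentration. The concentration for full growth arrest is given as TGI.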 Some results are limits rather than exact numbers.

Test systems include HCT-116 colon; SK-MEL-5 melanoma; SNB-19 CNS; NCI-H23 lung; HT29 colon; HS 578T breast; SK-MEL-28 melanoma; SW-620 colon; OVCAR-8 ovarian; SN12C renal; UO-31 renal; SK-MEL-2 melanoma; RXF 393 renal; EKVX NSCLC; ACHN renal; HOP-62 NSCLC; LOX IMVI melanoma; 786-0 renal; MCF7 breast.
Common to all, as to assay: growth of human tumour cells (NCI), 48 h

In the case of `[O-][n+]1onc2c1CCC(=N\O)/C2=N/Nc1ccccc1`, the TGI in the assay on HCT-116 colon, with SK-MEL-5 melanoma, in the assay with SNB-19 CNS, in the assay with NCI-H23 lung, with HT29 colon and in the assay with HS 578T breast was greater than 100 µM each time. The TGI in the assay on SK-MEL-28 melanoma, with SW-620 colon, in the assay with OVCAR-8 ovarian, in the assay on SN12C renal, in the assay with UO-31 renal and in the assay on SK-MEL-2 melanoma was greater than 100 µM throughout. For the same compound, the TGI in the assay with RXF 393 renal, with EKVX NSCLC, with ACHN renal, with HOP-62 NSCLC, with LOX IMVI melanoma and in the assay on 786-0 renal was greater than 100 µM each time. The same compound returned a TGI in the assay with MCF7 breast greater than 100 µM.

For `COc1cc(OC)c2c(=O)cc(-c3ccccc3F)[nH]c2c1`, the TGI in the assay on HCT-116 colon is greater than 100 µM; in the assay on SK-MEL-5 melanoma, greater than 100 µM; with SNB-19 CNS, 73.6 µM; with NCI-H23 lung it was greater than 100 µM; in the assay with HT29 colon, greater than 100 µM; in the assay with HS 578T breast, greater than 100 µM. The TGI in the assay on SK-MEL-28 melanoma is greater than 100 µM; in the assay on SW-620 colon, greater than 100 µM; in the assay with OVCAR-8 ovarian, greater than 100 µM; with SN12C renal it was greater than 100 µM; in the assay with UO-31 renal it was 84.5 µM; in the assay on SK-MEL-2 melanoma it was greater than 100 µM. For the same compound, the TGI in the assay with RXF 393 renal, in the assay on EKVX NSCLC, in the assay on ACHN renal, in the assay on HOP-62 NSCLC, in the assay with LOX IMVI melanoma and in the assay with 786-0 renal was greater than 100 µM in each case. Besides, the TGI with MCF7 breast is greater than 100 µM.

As to `CCN1CCN(c2ccc(Nc3ccnc4ccc5c(nnn5C)c34)cc2)CC1`, the TGI was 14.3 µM with HCT-116 colon; 23 µM with SK-MEL-5 melanoma; 15.1 µM with SNB-19 CNS; 29.4 µM with NCI-H23 lung; 72.4 µM in the assay on HT29 colon; 31.9 µM in the assay with HS 578T breast. Besides, the TGI in the assay on SK-MEL-28 melanoma came out at 23.9 µM; with SW-620 colon, 19 µM; in the assay on OVCAR-8 ovarian it was 40.8 µM; with SN12C renal it was 16 µM; in the assay with UO-31 renal, 25.7 µM; in the assay on SK-MEL-2 melanoma, 24.8 µM. Further, the TGI was found to be 23.4 µM with RXF 393 renal; 43.9 µM in the assay with EKVX NSCLC; 11.5 µM with ACHN renal; 17.4 µM in the assay on HOP-62 NSCLC; 13.1 µM with LOX IMVI melanoma; 15.9 µM in the assay on 786-0 renal. Also, the TGI with MCF7 breast is 14.8 µM.

With `O=C(CCc1ccccc1)ON1C(=S)NC(c2ccccc2)(c2ccccc2)C1=S`, the TGI is greater than 100 µM in the assay on HCT-116 colon; 40.6 µM in the assay on SK-MEL-5 melanoma; greater than 100 µM in the assay on SNB-19 CNS; 97.6 µM in the assay on NCI-H23 lung; 93.6 µM in the assay with HT29 colon; greater than 100 µM with HS 578T breast. Further, the TGI is greater than 100 µM in the assay on SK-MEL-28 melanoma; greater than 100 µM in the assay on SW-620 colon; greater than 100 µM in the assay with OVCAR-8 ovarian; greater than 100 µM in the assay on SN12C renal; greater than 100 µM in the assay on UO-31 renal; 47.8 µM in the assay on SK-MEL-2 melanoma. For the same compound, the TGI in the assay with RXF 393 renal was 93 µM; with EKVX NSCLC it was greater than 100 µM; in the assay on ACHN renal it was greater than 100 µM; with HOP-62 NSCLC it was greater than 100 µM; in the assay on LOX IMVI melanoma it was 52.8 µM; in the assay with 786-0 renal, greater than 100 µM. In addition, the TGI with MCF7 breast is greater than 100 µM.

As for `O=C1CC(O)c2c(Br)sc(Br)c21` (stereo not drawn), the TGI in the assay with HCT-116 colon was 26.7 µM; in the assay on SK-MEL-5 melanoma, 34.5 µM; with SNB-19 CNS it was 34.9 µM; in the assay with NCI-H23 lung, 57.7 µM; with HT29 colon, 43.1 µM; in the assay with HS 578T breast, 55.9 µM. Also, the TGI in the assay with SK-MEL-28 melanoma came out at 30.1 µM; in the assay with SW-620 colon, 4.53 µM; in the assay with OVCAR-8 ovarian, 24.1 µM; in the assay with SN12C renal, 34.2 µM; in the assay on UO-31 renal, 7.19 µM; with SK-MEL-2 melanoma, 28 µM. For the same compound, the TGI in the assay on RXF 393 renal turned out to be 5.51 µM; in the assay with EKVX NSCLC, 27.7 µM; in the assay with ACHN renal it was 29.7 µM; in the assay with HOP-62 NSCLC, 24.5 µM; in the assay on LOX IMVI melanoma it was 20.4 µM; with 786-0 renal it was 14.8 µM. Moreover, the TGI in the assay on MCF7 breast came out at 15.5 µM.

Turning to `COC(=O)c1ccccc1CC1Cc2ccc3c(c2C1)CCC3` (stereo not drawn), the TGI with HCT-116 colon was greater than 100 µM; in the assay on SK-MEL-5 melanoma, 43.8 µM; in the assay on SNB-19 CNS, greater than 100 µM; in the assay with NCI-H23 lung, greater than 100 µM; in the assay with HT29 colon, 96.8 µM; in the assay with HS 578T breast, greater than 100 µM. In addition, the TGI was greater than 100 µM with SK-MEL-28 melanoma; greater than 100 µM in the assay on SW-620 colon; greater than 100 µM in the assay with OVCAR-8 ovarian; greater than 100 µM in the assay on SN12C renal; greater than 100 µM with UO-31 renal; 30.7 µM in the assay with SK-MEL-2 melanoma. Besides, the TGI in the assay with RXF 393 renal is 52.9 µM; with EKVX NSCLC, 48.8 µM; in the assay with ACHN renal it was greater than 100 µM; in the assay on HOP-62 NSCLC it was greater than 100 µM; in the assay on LOX IMVI melanoma, 31.1 µM; with 786-0 renal, greater than 100 µM. The compound further showed a TGI in the assay with MCF7 breast of 30.1 µM.

For the compound `c1ccc(Cc2nc(Cc3n[nH]c(Cc4ccccc4)n3)n[nH]2)cc1`, the TGI in the assay on HCT-116 colon, in the assay on SK-MEL-5 melanoma, with SNB-19 CNS, in the assay on NCI-H23 lung, in the assay on HT29 colon and with HS 578T breast was greater than 100 µM each time. Moreover, the TGI with SK-MEL-28 melanoma, in the assay on SW-620 colon, in the assay with OVCAR-8 ovarian, in the assay on SN12C renal, in the assay with UO-31 renal and with SK-MEL-2 melanoma was greater than 100 µM throughout. The TGI in the assay on RXF 393 renal, with EKVX NSCLC, in the assay on ACHN renal, in the assay on HOP-62 NSCLC, in the assay with LOX IMVI melanoma and in the assay on 786-0 renal was greater than 100 µM throughout. The same compound displayed a TGI with MCF7 breast greater than 100 µM.
